What all share (assay): Glasshouse assay for herbicidal activity (pre- and post-emergence), percentage phytotoxicity
Assay type in all cases: in vivo

The test system of one assay is Lolium perenne (LOLPE). The note with it: Lolium perenne. As for the experimental part: (§1) Test—Glasshouse Assay for Herbicidal Activity
(§2) Seeds of a variety of monocotyledonous and dicotyledonous test plants are sown in standard soil in pots. The plants are cultivated for one day (for pre-emergence (PRE)) or for about 12 days (for post-emergence (POST)) under controlled conditions in a glasshouse (warm climate species at 24/18° C., cool climate species at 20/16° C., both at day/night; 16 hours light; 65% humidity).
(§3) The test plants are then grown on, in a glasshouse (greenhouse) under controlled conditions (warm climate species at 24/18° C., cool climate species at 20/16° C., both at day/night; 16 hours light; 65% humidity) and are watered twice daily. 15 days after application of the test herbicide (15 DAA) (for post-emergence), and 20 days after application of the test herbicide (20 DAA) (for pre-emergence), the test plants are evaluated visually, and an assessed percentage phytotoxicity score is given for each herbicidal application on each plant species (with 100%=total damage to plant; 0%=no damage to plant).
(§4) The plant species tested are as follows: Alopecurus myosuroides (ALOMY), Avena fatua (AVEFA), Lolium perenne (LOLPE), Echinochloa crus-galli (ECHCG).

Assay [1] concerns Echinochloa crus-galli (ECHCG). The note with it: Echinochloa crus-galli. As for the experimental part:
as §1, §2, §3, §4

Assay [2] concerns Alopecurus myosuroides (ALOMY). The note with it: Alopecurus myosuroides. As for the experimental part:
as §1, §2, §3, §4

The test system of a further assay is Avena fatua (AVEFA). The following applies: Avena fatua. As for the experimental part: as §1, §2, §3, §4
The mark [3] stands for this setting: post-emergence, 360 h, 250 g/ha, post-emergence, 15 DAA, visual assessment (100%=total damage, 0%=no damage), read-out: Post-emergence herbicidal activity (percentage phytotoxicity) LOLPE POST.
[4] abbreviates: pre-emergence, 480 h, 250 g/ha, pre-emergence, 20 DAA, visual assessment (100%=total damage, 0%=no damage), read-out: Pre-emergence herbicidal activity (percentage phytotoxicity) LOLPE PRE.
The mark [5] stands for this setting: post-emergence, 360 h, 250 g/ha, post-emergence, 15 DAA, visual assessment (100%=total damage, 0%=no damage), read-out: Post-emergence herbicidal activity (percentage phytotoxicity) ECHCG POST.
The mark [6] stands for this setting: pre-emergence, 480 h, 250 g/ha, pre-emergence, 20 DAA, visual assessment (100%=total damage, 0%=no damage), read-out: Pre-emergence herbicidal activity (percentage phytotoxicity) ECHCG PRE.
The mark [7] stands for this setting: post-emergence, 360 h, 250 g/ha, post-emergence, 15 DAA, visual assessment (100%=total damage, 0%=no damage), read-out: Post-emergence herbicidal activity (percentage phytotoxicity) ALOMY POST.
[8] abbreviates: pre-emergence, 480 h, 250 g/ha, pre-emergence, 20 DAA, visual assessment (100%=total damage, 0%=no damage), read-out: Pre-emergence herbicidal activity (percentage phytotoxicity) ALOMY PRE.
Where [9] appears, read: post-emergence, 360 h, 250 g/ha, post-emergence, 15 DAA, visual assessment (100%=total damage, 0%=no damage), read-out: Post-emergence herbicidal activity (percentage phytotoxicity) AVEFA POST.
The mark [10] stands for this setting: pre-emergence, 480 h, 250 g/ha, pre-emergence, 20 DAA, visual assessment (100%=total damage, 0%=no damage), read-out: Pre-emergence herbicidal activity (percentage phytotoxicity) AVEFA PRE.
[11] abbreviates: post-emergence, 360 h, POST-emergence, rate 250 g/ha, visual score 15 DAA (100%=total damage, 0%=no damage), read-out: Post-emergence herbicidal activity (percentage phytotoxicity) LOLPE POST.
The mark [12] stands for this setting: pre-emergence, 480 h, PRE-emergence, rate 250 g/ha, visual score 20 DAA (100%=total damage, 0%=no damage), read-out: Pre-emergence herbicidal activity (percentage phytotoxicity) LOLPE PRE.
[13] abbreviates: post-emergence, 360 h, POST-emergence, rate 250 g/ha, visual score 15 DAA (100%=total damage, 0%=no damage), read-out: Post-emergence herbicidal activity (percentage phytotoxicity) ECHCG POST.
[14] abbreviates: pre-emergence, 480 h, PRE-emergence, rate 250 g/ha, visual score 20 DAA (100%=total damage, 0%=no damage), read-out: Pre-emergence herbicidal activity (percentage phytotoxicity) ECHCG PRE.
Where [15] appears, read: post-emergence, 360 h, POST-emergence, rate 250 g/ha, visual score 15 DAA (100%=total damage, 0%=no damage), read-out: Post-emergence herbicidal activity (percentage phytotoxicity) ALOMY POST.
Setting [16] is: pre-emergence, 480 h, PRE-emergence, rate 250 g/ha, visual score 20 DAA (100%=total damage, 0%=no damage), read-out: Pre-emergence herbicidal activity (percentage phytotoxicity) ALOMY PRE.
Where [17] appears, read: post-emergence, 360 h, POST-emergence, rate 250 g/ha, visual score 15 DAA (100%=total damage, 0%=no damage), read-out: Post-emergence herbicidal activity (percentage phytotoxicity) AVEFA POST.
The mark [18] stands for this setting: pre-emergence, 480 h, PRE-emergence, rate 250 g/ha, visual score 20 DAA (100%=total damage, 0%=no damage), read-out: Pre-emergence herbicidal activity (percentage phytotoxicity) AVEFA PRE.
[19] abbreviates: post-emergence, 360 h, Rate 250 g/ha, post-emergence, assessed visually 15 DAA, 100%=total damage, 0%=no damage, read-out: Post-emergence herbicidal activity (percentage phytotoxicity) LOLPE POST.
The mark [20] stands for this setting: pre-emergence, 480 h, Rate 250 g/ha, pre-emergence, assessed visually 20 DAA, 100%=total damage, 0%=no damage, read-out: Pre-emergence herbicidal activity (percentage phytotoxicity) LOLPE PRE.
[21] abbreviates: post-emergence, 360 h, Rate 250 g/ha, post-emergence, assessed visually 15 DAA, 100%=total damage, 0%=no damage, read-out: Post-emergence herbicidal activity (percentage phytotoxicity) ECHCG POST.
Where [22] appears, read: pre-emergence, 480 h, Rate 250 g/ha, pre-emergence, assessed visually 20 DAA, 100%=total damage, 0%=no damage, read-out: Pre-emergence herbicidal activity (percentage phytotoxicity) ECHCG PRE.
[23] abbreviates: post-emergence, 360 h, Rate 250 g/ha, post-emergence, assessed visually 15 DAA, 100%=total damage, 0%=no damage, read-out: Post-emergence herbicidal activity (percentage phytotoxicity) ALOMY POST.
Where [24] appears, read: pre-emergence, 480 h, Rate 250 g/ha, pre-emergence, assessed visually 20 DAA, 100%=total damage, 0%=no damage, read-out: Pre-emergence herbicidal activity (percentage phytotoxicity) ALOMY PRE.
The mark [25] stands for this setting: post-emergence, 360 h, Rate 250 g/ha, post-emergence, assessed visually 15 DAA, 100%=total damage, 0%=no damage, read-out: Post-emergence herbicidal activity (percentage phytotoxicity) AVEFA POST.
[26] abbreviates: pre-emergence, 480 h, Rate 250 g/ha, pre-emergence, assessed visually 20 DAA, 100%=total damage, 0%=no damage, read-out: Pre-emergence herbicidal activity (percentage phytotoxicity) AVEFA PRE.

Like-named read-outs stand apart in the source and are kept apart here.

With `Cc1cc(-n2cc(Cl)c(C)n2)cc(C)c1C1C(=O)CC(CC(=O)NC(C)(C)C)C1=O` (centres unmarked) [Compound B105], the pest or weed control at 250 g/ha in the assay with Lolium perenne (LOLPE) (setting [3]) came out at 60%; in the assay on Lolium perenne (LOLPE) (setting [4]) it was 70%; in assay [1] (setting [5]), 100%; in assay [1] (setting [6]) it was 100%; in assay [2] (setting [7]), 70%; in assay [2] (setting [8]) it was 70%. For the same compound, the pest or weed control at 250 g/ha came out at 60% with Avena fatua (AVEFA) (setting [9]) and 20% in the assay with Avena fatua (AVEFA) (setting [10]).
`CCc1cc(OCC(F)(F)F)cc(C)c1C1C(=O)CC(CC(=O)NC(C)(C)C)C1=O` (centres unmarked) [Compound B165]: the pest or weed control at 250 g/ha (with Lolium perenne (LOLPE) (setting [11]); in the assay on Lolium perenne (LOLPE) (setting [12]); in assay [1] (setting [13]); in assay [1] (setting [14]); in assay [2] (setting [15]); in assay [2] (setting [16])) was 100% in each case. The pest or weed control at 250 g/ha in the assay on Avena fatua (AVEFA) (setting [17]) and with Avena fatua (AVEFA) (setting [18]) was 100% throughout.
Consider `Cc1cc(-c2cc(C#N)c(F)cn2)cc(C)c1C1C(=O)CC(CC(=O)NC(C)(C)C)C1=O` (centres unmarked) [Compound B99], for which the pest or weed control at 250 g/ha in the assay with Lolium perenne (LOLPE) (setting [3]) was 80%; in the assay with Lolium perenne (LOLPE) (setting [4]), 80%; in assay [1] (setting [5]) it was 80%; in assay [1] (setting [6]), 70%; in assay [2] (setting [7]), 70%; in assay [2] (setting [8]), 70%. For the same compound, the pest or weed control at 250 g/ha was 20% with Avena fatua (AVEFA) (setting [9]) and 30% in the assay on Avena fatua (AVEFA) (setting [10]).
Take `C#CC(C)(C)NC(=O)CC1CC(=O)C(c2c(C)cc(C)cc2C)C1=O` (centres unmarked) [Compound A11]: the pest or weed control at 250 g/ha in the assay with Lolium perenne (LOLPE) (setting [19]) was determined as 70%; with Lolium perenne (LOLPE) (setting [20]), 70%; in assay [1] (setting [21]), 80%; in assay [1] (setting [22]), 70%; in assay [2] (setting [23]), 80%; in assay [2] (setting [24]) it was 70%. The pest or weed control at 250 g/ha was found to be 70% in the assay with Avena fatua (AVEFA) (setting [25]) and 50% with Avena fatua (AVEFA) (setting [26]).
As to `CCN(C)C(=O)CC1CC(=O)C(c2c(C)cc(-n3cc(Cl)cn3)cc2C)C1=O` (centres unmarked) [Compound B228], the pest or weed control at 250 g/ha is 100% in the assay with Lolium perenne (LOLPE) (setting [11]); 100% in the assay with Lolium perenne (LOLPE) (setting [12]); 100% in assay [1] (setting [13]); 90% in assay [1] (setting [14]); 100% in assay [2] (setting [15]); 100% in assay [2] (setting [16]). Also, the pest or weed control at 250 g/ha in the assay with Avena fatua (AVEFA) (setting [17]) was found to be 100%; with Avena fatua (AVEFA) (setting [18]), 90%.
In the case of `Cc1cc(-c2ncc(Cl)cc2Cl)cc(C)c1C1C(=O)CC(CC(=O)NCc2cccc(Cl)c2)C1=O` (centres unmarked) [Compound A135], the pest or weed control at 250 g/ha was determined as 90% in the assay with Lolium perenne (LOLPE) (setting [19]); 70% in the assay with Lolium perenne (LOLPE) (setting [20]); 100% in assay [1] (setting [21]); 60% in assay [1] (setting [22]); 90% in assay [2] (setting [23]); 20% in assay [2] (setting [24]). The values for the pest or weed control at 250 g/ha with Avena fatua (AVEFA) (setting [25]) and in the assay with Avena fatua (AVEFA) (setting [26]) were 100% and 30%, respectively.
For `Cc1cc(C)c(C2C(=O)CC(CC(=O)N3CCCC3)C2=O)c(C)c1` (centres unmarked) [Compound A162], the pest or weed control at 250 g/ha in the assay on Lolium perenne (LOLPE) (setting [19]) worked out at 100%; in the assay with Lolium perenne (LOLPE) (setting [20]) it was 100%; in assay [1] (setting [21]), 90%; in assay [1] (setting [22]), 100%; in assay [2] (setting [23]) it was 90%; in assay [2] (setting [24]), 70%. For the same compound, the results for the pest or weed control at 250 g/ha with Avena fatua (AVEFA) (setting [25]) and in the assay on Avena fatua (AVEFA) (setting [26]) were 90% and 70%, respectively.

The values above are taken from patent US10206394B2, “Herbicidal compounds” (Syngenta Participations AG, priority 2014, dated 2019).
